Measured values published in patent US9725457B2, “6-amido derivatives of 4, 5-a epoxymorphinans for the treatment of pain” (Sloan-Kettering Institute for Cancer Research, priority 2010, dated 2017).
Like-named read-outs stand apart in the source and are kept apart here.

Experiments:
[1] = target: T1, MOR (mu opioid receptor), MOR1-CHO (Mus musculus, UniProt P42866); test: Competition binding in MOR-CHO, 125I-SMGP1 radioligand
T1 construct: expressed in transfected cells; host or cells: CHO
Method: (§1) Receptor-Binding Assays: Competition-binding assays in MOR-CHO (mu), DOR-CHO (delta) and KOR-CHO (kappa) were performed at 25° C. in 50 mM potassium phosphate buffer, pH 7.4, containing 5 mM magnesium sulfate (only in the case of CHO-MOR). Specific binding was defined as the difference between total binding and nonspecific binding, determined in the presence of 8 μM levallorphan. 125I-SMGP1 (IBNtxA) was used as the universal radioligand to determine the relative affinity of drugs in MOR1-CHO, KOR1-CHO and DOR1-CHO. Protein concentrations were generally 20-40 μg/mL, incubation times were 90 minutes for all assays. (Majumdar et al., Bioorg Med Chem Lett. 2011, 21(13), 4001-4004). Kappa3 opioid receptor competition binding assays were carried out in whole brain membrane homogenates, performed at 25° C. in 50 mM potassium phosphate buffer, pH 7.4, containing 5 mM magnesium sulfate for 90 minutes in presence of 100 nM CTAP, 100 nM U50488h and 100 nM DPDPE. ^125I-SMGP1 was used as the radioligand in the assays, typically 500 micrograms of protein and 0.15 nM of the radioligand was used in a 0.5 mL assay. Specific binding was defined as the difference between total binding and nonspecific binding, determined in the presence of 8 μM levallorphan. Protein concentration was determined as described by Lowry et al. [J Biol Chem 1951, 193, 265-275; (1951)] using bovine serum albumin as the standard. Kd, Bmax, and Ki values were calculated by nonlinear regression analysis (GraphPadPrism). […] The “kappa3 opioid receptor” as referred to herein is the receptor first characterized by Clark et al. [J. Pharmacol. Exp. Ther. 251, 461-468 (1989)].

[2] = target: T2, DOR (delta opioid receptor), DOR1-CHO (Mus musculus, UniProt P32300); test: Competition binding in DOR-CHO, 125I-SMGP1 radioligand
T2 construct: expressed in transfected cells; host or cells: CHO
Method: Receptor-Binding Assays: Competition-binding assays in MOR-CHO (mu), DOR-CHO (delta) and KOR-CHO (kappa) were performed at 25° C. in 50 mM potassium phosphate buffer, pH 7.4, containing 5 mM magnesium sulfate (only in the case of CHO-MOR). Specific binding was defined as the difference between total binding and nonspecific binding, determined in the presence of 8 μM levallorphan. […] Protein concentrations were generally 20-40 μg/mL, incubation times were 90 minutes for all assays. […] Specific binding was defined as the difference between total binding and nonspecific binding, determined in the presence of 8 μM levallorphan. […] Kd, Bmax, and Ki values were calculated by nonlinear regression analysis (GraphPadPrism).

[3] = target: T3, KOR (kappa opioid receptor), KOR1-CHO (Mus musculus, UniProt P33534); test: Competition binding in KOR-CHO, 125I-SMGP1 radioligand
T3 construct: expressed in transfected cells; host or cells: CHO
Method: as §1

[4] = system: mice; test: Radiant heat tail flick analgesia assay; format: in vivo; conditions: for ED50: Mus musculus, male CD-i mice, radiant heat tail-flick; for reversal of the analgesia elicited by SMGP1 by an antagonist: antagonist given against SMGP1 analgesia in mice
Method: Tail Flick Analgesia Assays: Male CD-i mice (25-35 g; Charles River Breeding Laboratories, Wilmington, Mass.) were maintained on a 12-hr light/dark cycle with Purina rodent chow and water available ad libitum. Mice were housed in groups of five until testing. Analgesia was determined using the radiant heat tail-flick technique [D'Amour and Smith, J. Pharmacol. Exp. Ther. 72: 74-79 (1941)]. For the tail-flick assay, the latency to withdraw the tail from a focused light stimulus was measured electronically using a photocell. […] Post-treatment tail-flick latencies were determined as indicated for each experiment, and a maximal latency of 10 sec for tail-flick was used to minimize tissue damage. All experiments were replicated at least twice with each group in each experiment containing at least 10 mice and the combined results of all replications presented.

[5] = target: kappa3 opioid receptor (Mus musculus, UniProt P42866); test: Kappa3 opioid receptor competition binding in whole brain membrane homogenates
Method: as §1

[6] = MOR-CHO, 125I-SMGP1, 25° C., 90 minutes, read-out: Ki (nM) MOR
[7] = DOR-CHO, 125I-SMGP1, 25° C., 90 minutes, read-out: Ki (nM) DOR
[8] = KOR-CHO, 125I-SMGP1, 25° C., 90 minutes, read-out: Ki (nM) KOR

C=CCN1CC[C@]23c4c5ccc(O)c4O[C@H]2[C@H](NC(=O)c2cccc(I)c2)CC[C@@]3(O)[C@H]1C5 [SMGP 3]
Ki [1, 6]: 0.22 nM | Ki [2, 7]: 2.55 nM | Ki [3, 8]: 0.08 nM | ED50 [4]: 0.57 mg/kg

C=CCN1CC[C@]23c4c5ccc(O)c4O[C@H]2[C@H](NC(=O)c2cccc(C)c2)CC[C@@]3(O)[C@H]1C5 [SMGP 22]
Ki [1, 6]: 0.29 nM | Ki [2, 7]: 8.24 nM | Ki [3, 8]: 1.62 nM | ED50 [4]: 2 mg/kg

C=CCN1CCC23c4c5ccc(O)c4OC2C(NC(=O)c2ccc(I)cc2)CCC3(O)C1C5 (stereo not drawn) [SMGP 17]
Ki [1]: 0.11 nM | Ki [2]: 3.36 nM | Ki [3]: 0.28 nM | ED50 [4]: 0.16 mg/kg

C=CCN1CC[C@]23c4c5ccc(O)c4O[C@H]2[C@H](NC(=O)c2ccc(OC(F)(F)F)cc2)CC[C@@]3(O)[C@H]1C5 [SMGP 29]
Ki [1, 6]: 0.66 nM | Ki [2, 7]: 17.9 nM | Ki [3, 8]: 3.16 nM | ED50 [4]: 0.82 mg/kg

C=CCN1CC[C@]23c4c5ccc(O)c4O[C@H]2[C@H](NC(=O)c2cccc(OC)c2)CC[C@@]3(O)[C@H]1C5 [SMGP 24]
Ki [1, 6]: 0.18 nM | Ki [2, 7]: 17.2 nM | Ki [3, 8]: 4.97 nM | ED50 [4]: 0.1 mg/kg

C=CCN1CC[C@]23c4c5ccc(O)c4O[C@H]2[C@H](NC(=O)c2cccc(C(F)(F)F)c2)CC[C@@]3(O)[C@H]1C5 [SMGP 23]
Ki [1, 6]: 0.85 nM | Ki [2, 7]: 2.96 nM | Ki [3, 8]: 0.22 nM | ED50 [4]: 0.26 mg/kg

C=CCN1CCC23c4c5ccc(O)c4OC2C(NC(=O)C2CCCCC2)CCC3(O)C1C5 (stereo not drawn) [SMGP 57]
Ki [1]: 11.5 nM | Ki [2]: > 100 nM | Ki [3]: 17.9 nM | ED50 [4]: > 10 mg/kg

CN1CC[C@]23CCCC[C@H]2[C@H]1Cc1ccc(O)cc13 [levorphanol]
affinity for the kappa3 site in words [5]: high affinity

C=CCN1CCC23c4c5ccc(O)c4OC2C(NC(=O)c2ccc(C4CCCCC4)cc2)CCC3(O)C1C5 (stereo not drawn) [SMGP 42]
Ki [1]: 1.55 nM | Ki [2]: 45.1 nM | Ki [3]: 49.8 nM | ED50 [4]: > 10 mg/kg

C=CCN1CCC23c4c5ccc(O)c4OC2C(NC(=O)c2ccc4ccccc4c2)CCC3(O)C1C5 (stereo not drawn) [SMGP 41]
Ki [1]: 0.74 nM | Ki [2]: 5.51 nM | Ki [3]: 1.29 nM | ED50 [4]: 1.47 mg/kg

C=CCN1CCC23c4c5ccc(O)c4OC2C(NC(=O)CCCCCCCCCCC)CCC3(O)C1C5 (stereo not drawn) [SMGP 56]
ED50 [4]: > 10 mg/kg

C=CCN1CC[C@]23c4c5ccc(O)c4O[C@H]2C(NC(=O)c2ccc(SC)cc2)CC[C@@]3(O)[C@H]1C5 (stereo partly drawn) [SMGP 59]
Ki [1]: 0.8 nM | Ki [2]: 15.9 nM | Ki [3]: 3.67 nM | ED50 [4]: 5.43 mg/kg

C=CCN1CCC23c4c5ccc(O)c4OC2C(NC(=O)c2ccccc2I)CCC3(O)C1C5 (stereo not drawn) [SMGP 16]
Ki [1]: 1.56 nM | Ki [2]: 22.8 nM | Ki [3]: 1 nM | ED50 [4]: > 10 mg/kg

C=CCN1CC[C@]23CCCC[C@H]2[C@H]1Cc1ccc(O)cc13 [levallorphan, reference compound]
affinity for the kappa3 site in words [5]: high affinity | reversal of the analgesia elicited by SMGP1 by an antagonist [4]: effectively reversed

C=CCN1CC[C@]23c4c5ccc(O)c4O[C@H]2C(=O)CC[C@@]3(O)[C@H]1C5 [naloxone, reference compound]
reversal of the analgesia elicited by SMGP1 by an antagonist [4]: far less potent

C=CCN1CC[C@]23c4c5ccc(O)c4O[C@H]2[C@H](NC(=O)c2cccc(O)c2)CC[C@@]3(O)[C@H]1C5 [SMGP 27]
Ki [1, 6]: 0.23 nM | Ki [2, 7]: 11.2 nM | Ki [3, 8]: 2.75 nM | ED50 [4]: 10.3 mg/kg

CN1CCC23c4c5ccc(O)c4OC2C(NC(=O)c2cccc(I)c2)CCC3(O)C1C5 (stereo not drawn) [SMGP 2]
ED50 [4]: > 10 mg/kg
